Laboratory results published in patent publication US20090197948A1, “Skin External Preparation” (Shiseido Co., Ltd., priority 2006, published 2009).

Tested on: skin of the forearms of 10 panelists (stratum corneum)
Assay: Testing by Conductance Measurement (rate of skin conductance change)
Assay type: in vivo, human
Details: for conductance evaluation, 30 minutes / conductance evaluation, 60 minutes / conductance evaluation, 120 minutes: Table 1, 10% aqueous solution; for conductance evaluation, 30 minutes: 30 minutes after application; for conductance evaluation, 60 minutes: 60 minutes after application; for conductance evaluation, 120 minutes: 120 minutes after application
Protocol: “Testing by Conductance Measurement” The skin conductance was measured before the application and after 30 minutes, 60 minutes, and 120 minutes of the application on the forearms of 10 panelists. From the rate of change, the moisturizing effect was evaluated. The rate of change of the skin conductance is determined by the following equation (III), and the influences on the water-absorbing property and the moisture-retention ability of the stratum corneum can be investigated. If the rate of change is small, it can be estimated that there is an increase in the water content in the stratum corneum and that the moisturizing effect is high. Rate of conductance change=(conductance before application)/(conductance after application) Equation (III) The evaluation criteria for the “Testing by Conductance Measurement” are as follows. ⊚: Average of the rate of conductance change of 10 panelists: 0 or higher and lower than 0.1 ◯: Average of the rate of conductance change of 10 panelists: 0.1 or higher and lower than 0.2 Δ: Average of the rate of conductance change of 10 panelists: 0.2 or higher and lower than 0.5 X: Average of the rate of conductance change of 10 panelists: 0.5 or higher Initially, the present inventors evaluated the conductance, based on the above-described criteria, for respective 10% aqueous solutions of various moisturizers.

SMILES | conductance evaluation, 30 minutes | conductance evaluation, 60 minutes | conductance evaluation, 120 minutes | Conductance measurement evaluation (Table 7, 5 % alone in ion exchanged water 95 %)
CC(O)CCO (stereo not shown) [1,3-butylene glycol] | Δ (Average of the rate of conductance change of 10 panelists: 0.2 or higher and lower than 0.5) | Δ (Average of the rate of conductance change of 10 panelists: 0.2 or higher and lower than 0.5) | Δ (Average of the rate of conductance change of 10 panelists: 0.2 or higher and lower than 0.5) | 
OCC(O)CO [glycerin] | ⊚ (Average of the rate of conductance change of 10 panelists: 0 or higher and lower than 0.1) | ◯ (Average of the rate of conductance change of 10 panelists: 0.1 or higher and lower than 0.2) | ◯ (Average of the rate of conductance change of 10 panelists: 0.1 or higher and lower than 0.2) | Δ (Average of the rate of conductance change of 10 panelists: 0.2 or higher and lower than 0.5)
